The subject of this assay is DIO mice (C57BL/6NTac, high fat diet). The assay can be described thus: body weight study in diet-induced obese (DIO) mice, 56 days. Format: in vivo, mouse. Particulars: DA 92.4 mg/kg, CQL 50 mg/kg, gavage BID. The procedure: This example provides results of a study of DA plus another compound (CQL) on body weight in diet-induced (DIO) mice. Adult C57BL/6NTac mice were fed with a high fat diet (60%). Vehicle group (N=15) were treated with distilled water by gavage BID, CQL (N=15) were treated at 50 mg/kg by gavage BID, and DA (N=15) at a dose of 92.4 mg/kg by gavage BID. The study period was for 56 days+2-3 days testing period afterward. […] Metabolic biomarkers were measured on days 28 and 56. Cytokine analysis on Days 28 and 56. Serum levels of GLP-1, GLP-2, and CCK at 1 h after dosing on Days 1 and 56, and at 2 h after dosing on Day 7 (dosing (>6 h fasting prior to dosing until after blood collection); and serum level of PPY on Day 56.

The text below walks through data of patent publication US20220193013A1, “Pharmaceutical Composition for Treatment or Prevention of Multiple Inflammatory Disorders” (priority 2020, published 2022).

The structures appear in SMILES notation.

For `Oc1c(I)cc(Cl)c2cccnc12` [CQL], the “serum HbA1c level at Day 28” value is listed as “significantly reduced” and the “serum HbA1c level at Day 56” value is “considerably increased”. Besides, the “daily water intake at Day 28” value (compared to vehicle) is recorded as “significantly decreased”.
